According to patent publication US20240226048A1, “METHODS OF TREATMENT USING BEMPEDOIC ACID” (Esperion Therapeutics, Inc., priority 2023, published 2024):

Experiment: CLEAR OUTCOMES trial: adverse events and safety laboratory findings
Assay type: in vivo, human
Conditions: for Any muscle disorder, %: prespecified adverse event of special interest
Text: The CLEAR OUTCOMES trial was a randomized, placebo-controlled, double-blind trial that enrolled patients at 1250 sites in 32 countries. An independent Data Monitoring Committee reviewed safety and efficacy data during the trial. Patients 18 to 85 years of age were eligible for enrollment if they met either of two criteria for increased cardiovascular risk, a prior cardiovascular event (secondary prevention) or clinical features that placed them at high risk for a cardiovascular event (primary prevention). (Nicholls […], Bays H E, et al. Rationale and design of the CLEAR-outcomes trial: Evaluating the effect of bempedoic acid on cardiovascular events in patients with statin intolerance. Am Heart J. 2021 May; 235: 104-112) All patients provided written informed consent. Patients had to report statin intolerance due to an adverse effect that started or increased during statin therapy and resolved or improved after statin therapy was discontinued. Patients could be enrolled if they tolerated a very low average daily statin dose (e.g., an average daily dose of rosuvastatin <5 mg, atorvastatin <10 mg, simvastatin <10 mg, lovastatin <20 mg, pravastatin <40 mg, fluvastatin <40 mg, or pitavastatin <2 mg). Other lipid-lowering therapies were permitted, including ezetimibe, niacin, bile acid resins, fibrates, and/or proprotein convertase subtilisin kexin type 9 (PCSK9) inhibitors. Full inclusion and exclusion criteria are provided in Nicholls et al. (Am Heart J. 2021). Eligible patients entered a 4-week run-in period during which patients were treated with single-blind placebo. If patients were intolerant to placebo treatment or if adherence was <80% by tablet count, they were not eligible for randomization. […] Beginning 6 months after enrollment, the central laboratory notified the investigator if the patient's LDL-cholesterol level was ≥25% higher than baseline. These patients were counseled on healthy dietary guidelines and reminded to take all lipid-regulating medications. If repeat testing confirmed that LDL-cholesterol value met the threshold criteria, the provider could adjust the lipid-lowering treatment regimen per standard of care and local guidelines.

[1] = N = 7001, listed as bempedoic acid
[2] = at any visit, repeated and confirmed, N = 7001

CC(C)(CCCCCC(O)CCCCCC(C)(C)C(=O)O)C(=O)O [Bempedoic Acid, Bempedoic acid]
Adverse event leading to drug discontinuation, % (180 mg oral daily, N = 7001): (11.0) % | Any treatment emergent adverse event, % (180 mg oral daily, N = 7001): (86.3) % | Serious treatment emergent adverse event, % (180 mg oral daily, N = 7001): (25.4) % | Adjudicated tendon rupture, % (N = 7001): (1.2) % | Atrial fibrillation, % (N = 7001): (3.3) % | Cholelithiasis, % (N = 7001): (2.2) % | Discontinuation of treatment due to myalgia, % (N = 7001): (1.8) % | Elevated hepatic enzymes, % (N = 7001): (4.5) % | Gout, % (N = 7001): (3.1) % | Hyperuricemia, % (N = 7001): (10.9) % | Hypoglycemia, % (N = 7001): (4.3) % | Malignancies, % (N = 7001): (4.7) % | Metabolic acidosis, % (N = 7001): (0.2) % | Myalgia, % (N = 7001): (5.6) % | Neurocognitive disorders, % (N = 7001): (0.8) % | Renal impairment, % (N = 7001): (11.5) % | Tendinopathies, % (N = 7001): (1.7) % | Cholelithiasis, % [1]: 2.2% | Elevated hepatic enzymes, % [1]: 4.5% | Gout, % [1]: 3.1% | Hyperuricemia, % [1]: 10.9% | Renal impairment, % [1]: 11.5% | Change from baseline in creatinine levels (after 6 months, mean): 0.05 mg/dL | Change from baseline in uric acid levels (after 6 months, mean): 0.76 mg/dL | Change from baseline in glycated hemoglobin level (%) (after 12 months, not a prespecified safety measure): 0.04% | Creatine kinase levels >5x ULN (repeated and confirmed), % (at any visit, N = 7001): (0.1) % | Creatine kinase levels >5x ULN (single occurrence), % (at any visit, N = 7001): (0.6) % | Alanine aminotransferase level >3 times ULN, % [2]: (1.2) % | Aspartate aminotransferase level >3 times ULN, % [2]: (1.1) % | tolerability of treatment (discontinuation rates similar to placebo): well tolerated | Worsening hyperglycemia, % (in patients with diabetes at baseline): (22.7) % | Mean changes in creatinine and uric acid from baseline compared with placebo (in vivo): larger | New onset diabetes in patients with normoglycemia at baseline, % (in vivo): (5.5) % | New onset diabetes in patients with pre-diabetes at baseline, % (in vivo): (19.5) % | New onset diabetes in patients without diabetes at baseline, % (in vivo): (16.1) % | Rates of liver transaminase elevations >3×ULN compared with placebo (in vivo): more frequent | Any muscle disorder, % (N = 7001): (15.0) % | Any muscle disorder, % [1]: 15.0% | between group differences in overall rates of adverse events, serious adverse events, or adverse events leading to drug discontinuation (vs placebo): not clinically meaningful between group differences | other prespecified adverse events of special interest (diabetes, hypoglycemia, metabolic acidosis, neurocognitive disorders, atrial fibrillation, tendinopathies, malignancies) (vs placebo): no differences
